Results taken from patent US5108900A, “Monoclonal antibodies to synthetic pyrethroids and method for detecting the same” (Regents of the University of California, priority 1989, dated 1992).

Experiments:
[1] = background; cited from earlier work
monoclonal antibody Py-3 = assay: Competition ELISA (cELISA), monoclonal antibody Py-3, 3-pba-BSA coated plates; type: binding, mouse; details: for Average 50% inhibition values (I50), Py-3: Table I, averages from at least 12 assays
Protocol: (§1) The binding specificities of antibodies to standards and assay samples were evaluated by competition ELISA assays. In a competition assay system, an antigen, which is a large molecule with protein or carbohydrate moieties which can precisely bind with steric interaction with the conformation of the antibodies is fixed to the reaction surface of a test plate, and antigen-specific antibody is added along with an aliquot of sample extract or standard test solution. The free-floating antibody partitions between the fixed antigen bound to the test reaction surface and the antigen of the added sample or standard which is free-floating in the solution. After a reaction period, the free-floating antigen-antibody complex is washed away. The plate is rewashed and incubated with an enzyme-tagged indicator molecule which will immunospecifically bind to proteins of the animal species which was the source of the pyrethroid-specific antibodies. Substrate and buffer are provided for the reaction of the enzyme-tagged indicator molecule. The optical signal from the enzyme substrate reaction indicates the amount of pyrethroid-specific antibody which remains bound to the immobilized antigen on the reaction plate. The utility of such a reaction system is dependent on the surface binding of the antigenic hapten-protein complex. The sensitivity of such a binding system can be amplified by coupling the enzyme reaction endpoint to a biotin-avidin complex. Optimal enzyme sensitivity occurs when a minimal amount of coating antigen (3-pba-BSA) is used.
(§2) A competition enzyme-linked immunosorbent assay (c-ELISA) was developed to quantify permethrin standards in solution and to assess the specificity of the antibodies for various natural and synthetic pyrethroids. […] The 3-pba conjugate could be prepared by using EDC (1-ethyl-3-(3-dimethylaminopropyl)carbodiimide) as a cross-linking agent. The 3-pba conjugate was used as the coating agent for all subsequent experiments. Microtiter plates were coated with 0.5 μg/well 3-pba-BSA and blocked with ovalbumin.
(§3) In the competition ELISA, the competitors were dissolved in acetonitrile and were added to phosphate-buffered saline(PBS)-Tween buffer such that the resulting solution was 6% acetonitrile. Competitor was added so that each well contained 100 μl of competitor in a 6% acetonitrile-PBS solution. An equal volume of PBS containing monoclonal antibody was added such that there was a final concentration assay buffer containing antibody and competitor. These antibodies can tolerate up to 5% acetonitrile without loss of activity. The plates were incubated for one hour at 37° C. and the endpoint assessed by observation of the color change of p-nitrophenyl phosphate substrate actuated by alkaline phosphatase conjugated to goat anti-mouse antibody.
(§4) Because the sensitivity of c-ELISA's can be influenced by both the amount of specific anti-hapten antibody used and the amount of immobilized antigen, both of these parameters were optimized. In the preferred method, the amount of antigen used to coat the microtiter plates was varied from 10-0.5 μg/well, with 0.5 μg/well being more preferred. The method of application of the antigen to the plate was important to the assay. Antigen could be absorbed onto the wells overnight at 4° C. or antigen could be allowed to evaporate from the antigen solution onto the wells at 37° C. Using Py-1 antibody and permethrin as competitor, maximal sensitivity was observed when the antigen was allowed to evaporate onto the wells. In the preferred method microliter plates were prepared by evaporation of 100 μl of a 5 μg/mL solution of coating antigen (3-pba-BSA) at 37° C.. […]
(§5) The competition ELISA data was normalized using 100% activity as the optical density in wells in which antibody bound to the solid phase antigen (3-pba-BSA) in the absence of any competitor. The test wells, each containing different amounts of competitor, were normalized to the 100% activity wells. […]

monoclonal antibody Py-1 = assay: Competition ELISA (cELISA), monoclonal antibody Py-1, 3-pba-BSA coated plates; type: binding, mouse; details: for I50 values observed for competitors (FIG. 4) / Average 50% inhibition values (I50), Py-1: Py-1; for Average 50% inhibition values (I50), Py-1: Table I, averages from at least 12 assays
Protocol: as §1, §2, §3
Because the sensitivity of c-ELISA's can be influenced by both the amount of specific anti-hapten antibody used and the amount of immobilized antigen, both of these parameters were optimized. In the preferred method, the amount of antigen used to coat the microtiter plates was varied from 10-0.5 μg/well, with 0.5 μg/well being more preferred. The method of application of the antigen to the plate was important to the assay. Antigen could be absorbed onto the wells overnight at 4° C. or antigen could be allowed to evaporate from the antigen solution onto the wells at 37° C. Using Py-1 antibody and permethrin as competitor, maximal sensitivity was observed when the antigen was allowed to evaporate onto the wells. In the preferred method microliter plates were prepared by evaporation of 100 μl of a 5 μg/mL solution of coating antigen (3-pba-BSA) at 37° C..
The antibody Py-1 was titrated against immobilized antigen (0.5 μg […]/well) in a direct binding ELISA. At a Py-1 antibody concentration of 0.02 μg/well, the level used in subsequent cELISA's, 40% of the plateau activity was reached. […]

monoclonal antibody Py-4 = assay: Competition ELISA (cELISA), monoclonal antibody Py-4, 3-pba-BSA coated plates; type: binding, mouse; details: for Average 50% inhibition values (I50), Py-4: Table I, averages from at least 12 assays
Protocol: as §1, §2, §3, §4, §5

[2] = cited from earlier work; for oncogenicity listing by U.S. Environmental Protection Agency: Regulating Pesticides in Food: The Delaney Paradox, 1987; for mammalian toxicity: background
[3] = tested on: Antibodies selected for their binding to the analog hapten of permethrin; assay: Antibody response to hapten and related pyrethroids; set-up: species or system mouse
Text: Synthetic pyrethroids are small organic molecules, and in an effort to render such a molecule immunogenic, it was necessary to conjugate such molecules to carrier protein. Various modifications of synthetic pyrethroids can be made to achieve this purpose.

Row | SMILES | Average 50% inhibition values (I50), Py-3 (monoclonal antibody Py-3) | I50 values observed for competitors (FIG. 4) (monoclonal antibody Py-1) | Average 50% inhibition values (I50), Py-1 (monoclonal antibody Py-1) | Average 50% inhibition values (I50), Py-4 (monoclonal antibody Py-4) | other results
1 | CC1(C)C(C=C(Cl)Cl)C1C(=O)OC(C#N)c1cccc(Oc2ccccc2)c1 (mixture of isomers) [Cypermethrin, alpha-cyano-3-phenoxybenzyl cis, trans-3-(2,2-dichlorovinyl)-2,2-dimethylcyclopropanecarboxylate] | 20 nanograms | 30 ng/well | 30 nanograms | 22 nanograms | stability [1]: more stable; oncogenicity listing by U.S. Environmental Protection Agency [2]: potentially oncogenic; mammalian toxicity [2]: low mammalian toxicity
2 | CC1(C)C(C=C(Cl)Cl)C1C(=O)OCc1cccc(Oc2ccccc2)c1 (mixture of isomers) [Permethrin, 3-phenoxybenzyl (lRS),cis,trans-3(2,2-dichlorovinyl)-2,2-dimethylcyclopropanecarboxylate] | 1.7 nanograms | 1.7 ng/well |  | 12 nanograms | stability [1]: more stable; concentration which caused a 50% inhibition (I50) of antibody activity, Py-3 (monoclonal antibody Py-3; FIG. 3, in words): low nanogram range; 50% inhibition value, Py-3 (monoclonal antibody Py-3; Table 1, ng of competitor): 1.7 ng; responsiveness of antibodies [3]: similarly responsive; concentration which caused a 50% inhibition (I50) of antibody activity, Py-1 (monoclonal antibody Py-1; FIG. 3, in words): low nanogram range; 50% inhibition value, Py-1 (monoclonal antibody Py-1; Table 1, ng of competitor): 1.5 ng; Average 50% inhibition values (I50), Py-1 (monoclonal antibody Py-1; listed as Permethrin (mixed isomers)): 1.5 nanograms; concentration which caused a 50% inhibition (I50) of antibody activity, Py-4 (monoclonal antibody Py-4; FIG. 3, in words): low nanogram range; 50% inhibition value, Py-4 (monoclonal antibody Py-4; Table 1, ng of competitor): 12 ng; oncogenicity listing by U.S. Environmental Protection Agency [2]: potentially oncogenic; mammalian toxicity [2]: low mammalian toxicity
3 | CC(C)=CC1C(C(=O)OCc2cccc(Oc3ccccc3)c2)C1(C)C (mixture of isomers) [Phenothrin, 3-phenoxybenzyl(lRS)cis,transchrysanthemate] | 0.5 nanograms | 1.5 ng/well | 1.5 nanograms | 6 nanograms | responsiveness of antibodies [3]: similarly responsive
4 | CC(C)=CC1C(C(=O)OCN2C(=O)C3=C(CCCC3)C2=O)C1(C)C (mixture of isomers) [Tetramethrin, N-(3,4,5,6-tetrahydrophthalimino) methyl (dl)-cis,trans-chrysanthemate] |  |  | > 600 nanograms |  | 
5 | CC1(C)[C@H](C(=O)O[C@H](C#N)c2cccc(Oc3ccccc3)c2)[C@@H]1C=C(Br)Br (racemic) [Deltamethrin, -/+alpha-cyano-3-phenoxybenzyl-(+/-)-cis,trans-3-(2,2-dibromovinyl)-2,2-dimethylcyclopropanecarboxylate] | 10 nanograms | 15 ng/well | 15 nanograms | 10 nanograms | stability [1]: more stable; mammalian toxicity [2]: low mammalian toxicity
6 | O=Cc1cccc(Oc2ccccc2)c1 [3-Phenoxybenzaldehyde] |  |  | 22 nanograms |  | 
7 | O=C(O)c1cccc(Oc2ccccc2)c1 [3-Phenoxybenzoic acid] | 140 nanograms |  | 200 nanograms | 330 nanograms | 
8 | CC(C)=CC1C(C(=O)O)C1(C)C (stereo not shown) [Chrysanthemic acid] |  |  | > 600 nanograms |  | 
9 | CC1(C)C(C(=O)OC(C#N)c2cccc(Oc3ccccc3)c2)C1(C)C (stereo not drawn) [Fenpropathrin, alpha-cyano-3-phenoxybenzyl-2,2,3,3-tetramethylcyclopropanecarboxylate] | 10 nanograms |  | 17 nanograms | 25 nanograms | 
10 | CC(C)C(C(=O)OC(C#N)c1cccc(Oc2ccccc2)c1)c1ccc(Cl)cc1 (stereo not shown) [Fenvalerate, cyano(3-phenoxyphenyl)methyl 4-chloroalpha-(1-methylethyl)benzeneacetate] | 160 nanograms | 350 ng/well | 350 nanograms | 4000 nanograms | 
11 | CC(C)[C@H](C(=O)OC(C#N)c1cccc(Oc2ccccc2)c1)c1ccc(OC(F)F)cc1 (stereo partly drawn) [Flucythranate, cyano(3-phenoxyphenyl)methyl(S)-4-(difluoromethoxy)-alpha-(1-methylethyl) benzeneacetate] | 45 nanograms |  | 120 nanograms | 275 nanograms | 
12 | CC1(C)C(C(=O)O)C1C(=O)OCc1cccc(Oc2ccccc2)c1 (stereo not shown) [Hapten] | 0.3 nanograms |  | 2 nanograms | 0.6 nanograms | responsiveness of antibodies [3]: similarly responsive
13 | CC1(C)C(C=C(Cl)Cl)C1C(=O)OCc1cccc(Oc2ccccc2)c1 [Permethrin (trans isomers)] |  |  | 1.7 nanograms |  | 
14 | C=CCC1=C(C)C(OC(=O)C2C(C=C(C)C)C2(C)C)CC1=O (stereo not shown) [allethrin] |  |  |  |  | stability in the air and water [1]: unstable character
15 | C=CCC1=C(C)C(OC(=O)[C@@H]2[C@@H](C=C(C)C)C2(C)C)CC1=O (stereo partly shown) [bioallethrin] |  |  |  |  | stability in the air and water [1]: unstable character
